Laboratory results as given in PMC8948245, “Mechanistic insights into the regulation of plant phosphate homeostasis by the rice SPX2 – PHR2 complex” (Nature Communications, 2022).

Tests used:
OsSPX4 = biological target: T1, OsSPX4 (Oryza sativa, UniProt Q10B79); assay: analytical SEC (profile shift with InsP6); type: binding; settings: pH 8.0, 150 mM NaCl
T1 construct: gene SPX4; full-length, N-terminal 6xHis tag removed by drICE protease; E. coli BL21(DE3)
T1 sequence (Q10B79 1-320): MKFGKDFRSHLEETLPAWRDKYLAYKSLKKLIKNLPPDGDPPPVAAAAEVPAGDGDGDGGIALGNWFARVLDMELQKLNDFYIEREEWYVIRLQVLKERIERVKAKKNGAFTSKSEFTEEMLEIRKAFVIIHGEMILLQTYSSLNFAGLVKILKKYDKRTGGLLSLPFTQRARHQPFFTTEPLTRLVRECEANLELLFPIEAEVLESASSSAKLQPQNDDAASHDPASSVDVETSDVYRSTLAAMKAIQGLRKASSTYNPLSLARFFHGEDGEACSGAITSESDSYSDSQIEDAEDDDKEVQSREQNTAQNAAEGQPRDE

[1] = biological target: T2, SPX2^1–280/PHR2^225–362 (rice) (Oryza sativa, UniProt Q6Z784, L28A); assay: co-expression coupled Ni-NTA pull-down (InsP6-dependent SPX2-PHR2 association); type: biochemical; settings: 1 mM InsP6, pH 8.0, 150 mM NaCl; indirect read-out
T2 construct: untagged full-length SPX2 (residues 1-280) co-expressed with 8xHis-tagged PHR2 225-362 in E. coli; 2:2 complex; with Protein PHOSPHATE STARVATION RESPONSE 2

[2] = biological target: T3, SPX2^1–280/PHR2^225–362 (rice) (Oryza sativa, UniProt Q6Z784, K143A/K147A); assay: as above; type: biochemical; settings: 1 mM InsP6, pH 8.0, 150 mM NaCl; indirect read-out
T3 construct: untagged full-length SPX2 (residues 1-280) co-expressed with 8xHis-tagged PHR2 225-362 in E. coli; 2:2 complex; with Protein PHOSPHATE STARVATION RESPONSE 2

AtSPX4 = biological target: T4, AtSPX4 (Arabidopsis thaliana, UniProt Q94A21); assay: analytical SEC (profile shift with InsP6); type: binding; settings: pH 8.0, 150 mM NaCl
T4 construct: gene SPX4; full-length, N-terminal 6xHis tag removed by drICE protease; E. coli BL21(DE3)
T4 sequence (Q94A21 1-318): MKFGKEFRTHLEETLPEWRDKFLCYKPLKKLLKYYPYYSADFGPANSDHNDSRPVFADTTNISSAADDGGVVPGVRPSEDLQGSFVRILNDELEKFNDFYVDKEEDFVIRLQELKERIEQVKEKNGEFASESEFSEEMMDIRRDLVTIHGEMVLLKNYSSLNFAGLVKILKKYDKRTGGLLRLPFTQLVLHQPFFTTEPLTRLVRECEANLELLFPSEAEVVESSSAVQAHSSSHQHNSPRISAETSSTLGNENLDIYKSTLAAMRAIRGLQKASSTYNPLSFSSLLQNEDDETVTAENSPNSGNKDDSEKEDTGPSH

OsSPX1 = biological target: T5, OsSPX1 (Oryza sativa, UniProt Q69XJ0); assay: analytical SEC (profile shift with InsP6); type: binding; settings: pH 8.0, 150 mM NaCl
T5 construct: gene SPX1; full-length, N-terminal 6xHis tag removed by drICE protease; E. coli BL21(DE3)
T5 sequence (Q69XJ0 1-295): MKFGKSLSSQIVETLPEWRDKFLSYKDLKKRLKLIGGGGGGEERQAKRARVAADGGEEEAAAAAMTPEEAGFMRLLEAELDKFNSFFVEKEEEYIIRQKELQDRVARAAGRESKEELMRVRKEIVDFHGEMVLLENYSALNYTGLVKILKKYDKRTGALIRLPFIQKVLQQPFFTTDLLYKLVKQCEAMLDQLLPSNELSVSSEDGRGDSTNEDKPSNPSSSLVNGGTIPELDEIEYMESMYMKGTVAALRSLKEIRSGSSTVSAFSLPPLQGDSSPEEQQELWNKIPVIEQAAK

[3] = biological target: T6, SPX2^1–280/PHR2^225–362 (rice) (Oryza sativa, UniProt Q6Z784, Y25A); assay: co-expression coupled Ni-NTA pull-down (InsP6-dependent SPX2-PHR2 association); type: biochemical; settings: 1 mM InsP6, pH 8.0, 150 mM NaCl; indirect read-out
T6 construct: untagged full-length SPX2 (residues 1-280) co-expressed with 8xHis-tagged PHR2 225-362 in E. coli; 2:2 complex; with Protein PHOSPHATE STARVATION RESPONSE 2

[4] = biological target: T7, SPX2^1–280/PHR2^225–362 (rice) (Oryza sativa, UniProt Q6Z784, K29A); assay: as above; type: biochemical; settings: 1 mM InsP6, pH 8.0, 150 mM NaCl; indirect read-out
T7 construct: untagged full-length SPX2 (residues 1-280) co-expressed with 8xHis-tagged PHR2 225-362 in E. coli; 2:2 complex; with Protein PHOSPHATE STARVATION RESPONSE 2

AtSPX2 = biological target: T8, AtSPX2 (Arabidopsis thaliana, UniProt O48781); assay: analytical SEC (profile shift with InsP6); type: binding; settings: pH 8.0, 150 mM NaCl
T8 construct: gene SPX2; full-length, N-terminal 6xHis tag removed by drICE protease; E. coli BL21(DE3)
T8 sequence (O48781 1-287): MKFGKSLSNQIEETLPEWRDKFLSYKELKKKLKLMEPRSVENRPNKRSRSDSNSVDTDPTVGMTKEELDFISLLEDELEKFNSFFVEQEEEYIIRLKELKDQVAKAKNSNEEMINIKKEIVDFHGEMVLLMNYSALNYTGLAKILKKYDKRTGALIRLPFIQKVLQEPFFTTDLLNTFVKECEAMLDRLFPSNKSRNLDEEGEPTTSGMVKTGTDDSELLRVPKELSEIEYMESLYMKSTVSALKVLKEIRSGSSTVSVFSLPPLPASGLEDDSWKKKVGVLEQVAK

[5] = biological target: T9, SPX2^1–280/PHR2^225–362 (rice) (Oryza sativa, UniProt Q6Z784, Y25F); assay: co-expression coupled Ni-NTA pull-down (InsP6-dependent SPX2-PHR2 association); type: biochemical; settings: 1 mM InsP6, pH 8.0, 150 mM NaCl; indirect read-out
T9 construct: untagged full-length SPX2 (residues 1-280) co-expressed with 8xHis-tagged PHR2 225-362 in E. coli; 2:2 complex; with Protein PHOSPHATE STARVATION RESPONSE 2

OsSPX2^1-267/Δ47-64 = biological target: T10, OsSPX2^1-267/Δ47-64 (Oryza sativa, UniProt Q6Z784, DEL47-64); assay: analytical SEC and AUC (change of oligomeric state); type: binding; settings: AUC with or without 1 mM InsP6, pH 8.0, 150 mM NaCl, 18 °C; no PHR2
T10 construct: gene SPX2; residues 1-267 lacking 47-64, C-terminal 8xHis tag, excess SPX2 separated from co-expressed PHR2 231-362; E. coli; monomer with InsP6
T10 sequence (Q6Z784 with tags, fused parts or gaps DEL47-64): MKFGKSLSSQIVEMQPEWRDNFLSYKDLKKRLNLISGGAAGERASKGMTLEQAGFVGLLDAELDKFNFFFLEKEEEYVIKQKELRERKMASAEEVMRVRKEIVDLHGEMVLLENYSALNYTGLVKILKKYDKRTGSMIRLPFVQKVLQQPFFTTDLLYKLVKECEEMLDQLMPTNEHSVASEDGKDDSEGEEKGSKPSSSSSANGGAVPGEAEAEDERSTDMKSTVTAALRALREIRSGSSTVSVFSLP

PHR2 MYB-CC K292D = PHR2 MYB-CC K292D (Oryza sativa, UniProt B8B5N8 225-362, K292D); assay: EMSA; EMSA: 10 nM FAM-DNA, 0.3375-0.8 uM PHR2, 25 mM Tris-HCl pH 8.0, 150 mM NaCl, 5 mM DTT, 10% glycerol, 200 ng/ml heparin, 4 C, 30 min; crystal: 13% PEG 3350, 0.1; settings: protein: recombinant; tags: C-terminal 8xHis; chain copies: 2; blunt, 30 bp
[6] = biological target: the molecule itself; assay: crystal structure; mH2A1.1^181–366-tagged SPX2^1-202/∆47-59 / InsP6 / PHR2^225–362 ternary complex, 10 mM InsP6 supplied, hanging drop, 18 °C, 3.1 Å
[7] = biological target: T11, His-tagged PHR2^225–362 (rice PHR2, MYB domain and CC domain) (rice (Oryza sativa), UniProt Q6Z156 225-362); assay: AUC; sedimentation velocity of the purified SPX2/PHR2 complex, 25 mM Tris-HCl pH 8.0, 150 mM NaCl, 1 mM InsP6, 18 °C, 0.7 mg ml^-1; settings: both partners purified
T11 construct: pET21b, C-terminal 8×His tag; codon-optimised synthetic cDNA; also called PHR2-His; source: E. coli BL21(DE3), co-expressed with SPX2; not shown: 8×His, C-terminal, kept
T11 sequence (Q6Z156 225-362): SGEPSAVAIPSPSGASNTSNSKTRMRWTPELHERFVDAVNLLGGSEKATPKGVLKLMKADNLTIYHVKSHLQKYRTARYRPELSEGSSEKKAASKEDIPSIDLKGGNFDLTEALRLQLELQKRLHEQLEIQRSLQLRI

T7 sequence (Q6Z784 whole entry K29A, the tested form may be a part): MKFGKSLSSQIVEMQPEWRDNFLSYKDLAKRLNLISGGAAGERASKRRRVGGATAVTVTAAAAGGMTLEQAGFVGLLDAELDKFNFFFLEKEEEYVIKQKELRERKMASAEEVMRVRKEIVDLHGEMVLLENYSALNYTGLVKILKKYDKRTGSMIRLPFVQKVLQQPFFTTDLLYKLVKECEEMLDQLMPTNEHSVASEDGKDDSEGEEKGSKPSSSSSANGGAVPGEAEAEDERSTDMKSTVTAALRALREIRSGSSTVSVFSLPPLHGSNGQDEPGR
T7 sequence (Q6Z156 225-362 partner): as the sequence (Q6Z156 225-362) above
T3 sequence (Q6Z784 whole entry K143A/K147A, the tested form may be a part): as the sequence (Q6Z784 whole entry K29A, the tested form may be a part) above, with A29K, K143A, K147A counted along it
T3 sequence (Q6Z156 225-362 partner): as the sequence (Q6Z156 225-362) above
PHR2 MYB-CC K292D, sequence (B8B5N8 225-362 K292D): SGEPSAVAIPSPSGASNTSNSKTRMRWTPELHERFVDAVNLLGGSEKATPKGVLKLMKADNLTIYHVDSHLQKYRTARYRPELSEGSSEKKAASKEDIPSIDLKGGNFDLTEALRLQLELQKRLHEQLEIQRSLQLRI
T2 sequence (Q6Z784 whole entry L28A, the tested form may be a part): as the sequence (Q6Z784 whole entry K29A, the tested form may be a part) above, with L28A, A29K counted along it
T2 sequence (Q6Z156 225-362 partner): as the sequence (Q6Z156 225-362) above
T9 sequence (Q6Z784 whole entry Y25F, the tested form may be a part): as the sequence (Q6Z784 whole entry K29A, the tested form may be a part) above, with Y25F, A29K counted along it
T9 sequence (Q6Z156 225-362 partner): as the sequence (Q6Z156 225-362) above
T6 sequence (Q6Z784 whole entry Y25A, the tested form may be a part): as the sequence (Q6Z784 whole entry K29A, the tested form may be a part) above, with Y25A, A29K counted along it
T6 sequence (Q6Z156 225-362 partner): as the sequence (Q6Z156 225-362) above

With `O=P(O)(O)O[C@H]1[C@H](OP(=O)(O)O)[C@@H](OP(=O)(O)O)[C@H](OP(=O)(O)O)[C@@H](OP(=O)(O)O)[C@H]1OP(=O)(O)O` [InsP6] the “analytical SEC (profile shift with InsP6)” value (OsSPX4) was “their SEC profiles differ strongly in the presence of InsP6”, the “co-expression coupled Ni-NTA pull-down (InsP6-dependent SPX2-PHR2 association)” value (“co-expression coupled Ni-NTA pull-down” for short) [1] was “strongly reduced or abolished by the Y25F, Y25A, L28A, K29A, or K143A/K147A substitutions of SPX2” and the “co-expression coupled Ni-NTA pull-down” value [2] was “strongly reduced or abolished by the Y25F, Y25A, L28A, K29A, or K143A/K147A substitutions of SPX2”. The “analytical SEC (profile shift with InsP6)” value (AtSPX4) was “their SEC profiles differ strongly in the presence of InsP6”, the “analytical SEC (profile shift with InsP6)” value (OsSPX1) was “their SEC profiles differ strongly in the presence of InsP6” and the “co-expression coupled Ni-NTA pull-down” value [3] was “strongly reduced or abolished by the Y25F, Y25A, L28A, K29A, or K143A/K147A substitutions of SPX2”. For the same molecule, the “co-expression coupled Ni-NTA pull-down” value [4] was “strongly reduced or abolished by the Y25F, Y25A, L28A, K29A, or K143A/K147A substitutions of SPX2”, the “analytical SEC (profile shift with InsP6)” value (AtSPX2) was “their SEC profiles differ strongly in the presence of InsP6” and the “co-expression coupled Ni-NTA pull-down” value [5] was “strongly reduced or abolished by the Y25F, Y25A, L28A, K29A, or K143A/K147A substitutions of SPX2”. The “analytical SEC and AUC (change of oligomeric state)” value (OsSPX2^1-267/Δ47-64) was “InsP6 binding appears to stabilize the domain into a monomeric state”.

B1: FAM P1BS EMSA probe (dsDNA)
DNA 1: AAGCTTGAATATGCAATGGAATATGCTTAG
DNA 2: CTAAGCATATTCCATTGCATATTCAAGCTT
B1: no binding (PHR2 MYB-CC K292D).

B2: mH2A1.1^181–366-tagged SPX2^1-202/∆47-59 (domain or fragment, rice (Oryza sativa), UniProt Q6Z784 1-202, looked up)
chain: MKFGKSLSSQIVEMQPEWRDNFLSYKDLKKRLNLISGGAAGERASKAAAAGGMTLEQAGFVGLLDAELDKFNFFFLEKEEEYVIKQKELRERKMASAEEVMRVRKEIVDLHGEMVLLENYSALNYTGLVKILKKYDKRTGSMIRLPFVQKVLQQPFFTTDLLYKLVKECEEMLDQLMPTNEHSVASEDG
notes: rice (Oryza sativa) SPX2, residues 1-202 with residues 47-59 (R47-T59) deleted; also called crystallized construct
B2 was tested, and the “stoichiometry N” value [6] was 2 and the “stoichiometry N” value [7] was 1 SPX2:PHR2 ratio (2:2).
